Experimental data: patent KR20080072496A, “노스탁속 균주 유래 아밀로플루란네이즈 및 이를 이용한고순도 말토올리고당의 제조방법” (재단법인서울대학교산학협력재단, priority 2007, dated 2008)

Molecular target: T1, Nostoc sp. PCC73102 amylopullulanase, SEQ ID NO: 4, recombinant from pETNPul6xH with C-terminal Leu-Glu-6His (노스탁속 균주 유래 아밀로플루란네이즈) (Nostoc punctiforme (strain ATCC 29133 / PCC 73102), UniProt B2IUW9)
T1 sequence (B2IUW9 1-488): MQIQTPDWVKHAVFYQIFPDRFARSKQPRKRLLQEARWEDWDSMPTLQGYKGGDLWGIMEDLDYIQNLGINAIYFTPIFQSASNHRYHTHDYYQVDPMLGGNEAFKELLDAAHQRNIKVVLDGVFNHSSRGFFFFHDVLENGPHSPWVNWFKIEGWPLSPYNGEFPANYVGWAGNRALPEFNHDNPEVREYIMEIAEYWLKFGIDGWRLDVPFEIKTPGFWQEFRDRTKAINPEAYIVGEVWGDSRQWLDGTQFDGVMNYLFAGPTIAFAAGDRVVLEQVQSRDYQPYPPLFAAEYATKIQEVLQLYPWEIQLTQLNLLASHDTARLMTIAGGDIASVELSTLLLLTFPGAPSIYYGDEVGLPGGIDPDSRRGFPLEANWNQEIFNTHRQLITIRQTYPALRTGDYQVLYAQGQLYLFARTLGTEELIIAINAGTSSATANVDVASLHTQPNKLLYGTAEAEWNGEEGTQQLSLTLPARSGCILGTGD
Assay: Kinetics of amylopullulanase on maltoheptaose, maltooctaose and maltononaose (Example 6-2, glucose quantified by GOD-POD method)
Assay type: biochemical
Conditions: 25 °C, pH 7, 3 min

SMILES	Kcat, ratio to Kcat of maltoheptaose (relative to maltoheptaose (G7))	Km, ratio to Km of maltononaose (relative to maltononaose (G9))	Km, ratio to Km of maltooctaose (relative to maltooctaose (G8))
OC[C@H]1O[C@H](O[C@H]2[C@H](O)[C@@H](O)[C@@H](O[C@H]3[C@H](O)[C@@H](O)[C@@H](O[C@H]4[C@H](O)[C@@H](O)[C@@H](O[C@H]5[C@H](O)[C@@H](O)[C@@H](O[C@H]6[C@H](O)[C@@H](O)[C@@H](O[C@H]7[C@H](O)[C@@H](O)[C@@H](O[C@H]8[C@H](O)[C@@H](O)[C@@H](O[C@H]9[C@H](O)[C@@H](O)C(O)O[C@@H]9CO)O[C@@H]8CO)O[C@@H]7CO)O[C@@H]6CO)O[C@@H]5CO)O[C@@H]4CO)O[C@@H]3CO)O[C@@H]2CO)[C@H](O)[C@@H](O)[C@@H]1O (stereo partly drawn) [말토노나오스, maltononaose]	~3 배 (fold)	–	–
OC[C@H]1O[C@H](O[C@H]2[C@H](O)[C@@H](O)[C@@H](O[C@H]3[C@H](O)[C@@H](O)[C@@H](O[C@H]4[C@H](O)[C@@H](O)[C@@H](O[C@H]5[C@H](O)[C@@H](O)[C@@H](O[C@H]6[C@H](O)[C@@H](O)[C@@H](O[C@H]7[C@H](O)[C@@H](O)C(O)O[C@@H]7CO)O[C@@H]6CO)O[C@@H]5CO)O[C@@H]4CO)O[C@@H]3CO)O[C@@H]2CO)[C@H](O)[C@@H](O)[C@@H]1O (stereo partly drawn) [말토헵타오스, maltoheptaose]	–	20 배 (fold)	7 배 (fold)
